ChEMBL document CHEMBL5131445, “Optimization of a novel piperazinone series as potent selective peripheral covalent BTK inhibitors” (Bioorg Med Chem Lett, 2022)
Values after ≈ are worked out from the molar mass of the structure shown.

Key:
[1] = biological target: Receptor tyrosine-protein kinase erbB-4 (Homo sapiens, UniProt Q15303); assay: Binding affinity to ERBB4 (unknown origin) assessed as dissociation constant by KINOMEscan analysis
[2] = Clearance in iv dosed Sprague-Dawley rat; type: ADME, organism-based; conditions: in vivo
[3] = Inhibition of CD69 expression on CD19 positive B cells in anti-IgD stimulated human whole blood; type: functional, tissue-based; conditions: CD19 positive B cell
[4] = Metabolic stability in human liver microsomes assessed as intrinsic clearance; type: ADME, Microsome; conditions: read-out: CLH
[5] = Plasma protein binding in human assessed as unbound fraction by rapid equilibrium dialysis method; type: ADME, cell-free
[6] = biological target: T1, Tyrosine-protein kinase ITK/TSK (Homo sapiens, UniProt Q08881); assay: Binding affinity to ITK (unknown origin) assessed as dissociation constant by KINOMEscan analysis
T1 sequence (Q08881 whole entry): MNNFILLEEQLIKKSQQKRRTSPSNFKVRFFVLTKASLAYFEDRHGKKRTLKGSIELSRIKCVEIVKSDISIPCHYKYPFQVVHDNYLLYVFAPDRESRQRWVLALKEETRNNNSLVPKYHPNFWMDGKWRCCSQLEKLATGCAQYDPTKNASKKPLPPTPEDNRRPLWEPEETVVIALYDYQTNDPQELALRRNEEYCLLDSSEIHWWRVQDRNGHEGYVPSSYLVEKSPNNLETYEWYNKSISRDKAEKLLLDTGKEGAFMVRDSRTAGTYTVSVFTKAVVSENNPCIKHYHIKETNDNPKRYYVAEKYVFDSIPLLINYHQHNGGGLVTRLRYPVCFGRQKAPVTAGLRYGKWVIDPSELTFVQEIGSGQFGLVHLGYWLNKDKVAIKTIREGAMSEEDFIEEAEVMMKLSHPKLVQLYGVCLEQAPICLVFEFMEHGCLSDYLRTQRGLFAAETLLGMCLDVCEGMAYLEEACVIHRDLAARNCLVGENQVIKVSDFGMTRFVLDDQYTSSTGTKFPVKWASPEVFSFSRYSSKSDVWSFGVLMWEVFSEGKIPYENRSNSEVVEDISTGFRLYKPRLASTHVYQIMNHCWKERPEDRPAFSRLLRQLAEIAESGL

[7] = biological target: T2, Tyrosine-protein kinase JAK3 (Homo sapiens, UniProt P52333); assay: Binding affinity to JAK3 (unknown origin) assessed as dissociation constant by KINOMEscan analysis
T2 sequence (P52333 whole entry): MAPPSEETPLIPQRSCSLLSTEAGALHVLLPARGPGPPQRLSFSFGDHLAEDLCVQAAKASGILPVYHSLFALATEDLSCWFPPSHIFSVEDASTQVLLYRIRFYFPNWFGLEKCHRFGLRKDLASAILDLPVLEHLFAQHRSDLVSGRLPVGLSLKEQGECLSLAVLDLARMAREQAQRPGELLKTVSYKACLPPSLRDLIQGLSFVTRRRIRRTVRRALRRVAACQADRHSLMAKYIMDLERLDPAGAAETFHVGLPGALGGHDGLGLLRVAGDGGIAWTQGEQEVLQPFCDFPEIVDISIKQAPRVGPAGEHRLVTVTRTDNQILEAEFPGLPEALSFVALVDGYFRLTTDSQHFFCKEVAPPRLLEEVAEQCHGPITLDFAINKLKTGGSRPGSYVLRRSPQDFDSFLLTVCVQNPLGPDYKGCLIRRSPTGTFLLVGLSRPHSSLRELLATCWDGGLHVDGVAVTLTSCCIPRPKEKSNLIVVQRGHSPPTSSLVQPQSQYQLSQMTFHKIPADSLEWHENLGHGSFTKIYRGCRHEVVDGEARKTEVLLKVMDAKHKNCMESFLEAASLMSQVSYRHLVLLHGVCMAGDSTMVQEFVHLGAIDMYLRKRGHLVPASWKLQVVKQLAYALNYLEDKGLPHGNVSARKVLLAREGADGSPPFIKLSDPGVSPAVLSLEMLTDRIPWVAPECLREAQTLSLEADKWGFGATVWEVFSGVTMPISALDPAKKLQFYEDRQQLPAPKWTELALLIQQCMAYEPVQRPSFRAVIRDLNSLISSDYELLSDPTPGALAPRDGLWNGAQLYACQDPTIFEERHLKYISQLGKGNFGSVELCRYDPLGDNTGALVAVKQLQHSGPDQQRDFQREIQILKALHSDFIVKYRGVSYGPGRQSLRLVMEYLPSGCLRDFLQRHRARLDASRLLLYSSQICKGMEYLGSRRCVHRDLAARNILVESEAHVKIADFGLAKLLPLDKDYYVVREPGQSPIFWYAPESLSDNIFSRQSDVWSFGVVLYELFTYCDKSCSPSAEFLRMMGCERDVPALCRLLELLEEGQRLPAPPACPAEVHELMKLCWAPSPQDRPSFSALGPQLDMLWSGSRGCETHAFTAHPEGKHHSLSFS

[8] = biological target: T3, Tyrosine-protein kinase TXK (Homo sapiens, UniProt P42681); assay: Binding affinity to TXK (unknown origin) assessed as dissociation constant by KINOMEscan analysis
T3 sequence (P42681 whole entry): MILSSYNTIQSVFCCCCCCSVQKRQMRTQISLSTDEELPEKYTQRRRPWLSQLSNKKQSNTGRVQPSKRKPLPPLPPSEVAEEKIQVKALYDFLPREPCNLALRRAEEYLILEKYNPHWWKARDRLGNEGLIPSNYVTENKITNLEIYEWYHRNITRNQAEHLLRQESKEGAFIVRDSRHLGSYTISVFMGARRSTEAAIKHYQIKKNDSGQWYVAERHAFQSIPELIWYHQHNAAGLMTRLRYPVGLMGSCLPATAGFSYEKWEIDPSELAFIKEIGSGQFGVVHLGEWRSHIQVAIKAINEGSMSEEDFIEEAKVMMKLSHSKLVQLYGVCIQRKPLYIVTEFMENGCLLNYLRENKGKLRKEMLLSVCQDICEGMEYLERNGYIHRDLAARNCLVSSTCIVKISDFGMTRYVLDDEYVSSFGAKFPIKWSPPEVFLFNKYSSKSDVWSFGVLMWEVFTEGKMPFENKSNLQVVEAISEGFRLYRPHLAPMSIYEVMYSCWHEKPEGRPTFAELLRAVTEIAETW

[9] = biological target: Voltage-gated inwardly rectifying potassium channel KCNH2 (Homo sapiens, UniProt Q12809); assay: Inhibition of hERG; type: toxicity
[10] = Kinetic aqueous solubility of the compound at pH 1.5 by shake flask assay; type: physicochemical; conditions: read-out: Kinetic_solubility
[11] = Volume of distribution at steady state in iv dosed Sprague-Dawley rat; type: ADME, organism-based; conditions: in vivo, read-out: Vdss

Sequence of Receptor tyrosine-protein kinase erbB-4 (Q15303 whole entry): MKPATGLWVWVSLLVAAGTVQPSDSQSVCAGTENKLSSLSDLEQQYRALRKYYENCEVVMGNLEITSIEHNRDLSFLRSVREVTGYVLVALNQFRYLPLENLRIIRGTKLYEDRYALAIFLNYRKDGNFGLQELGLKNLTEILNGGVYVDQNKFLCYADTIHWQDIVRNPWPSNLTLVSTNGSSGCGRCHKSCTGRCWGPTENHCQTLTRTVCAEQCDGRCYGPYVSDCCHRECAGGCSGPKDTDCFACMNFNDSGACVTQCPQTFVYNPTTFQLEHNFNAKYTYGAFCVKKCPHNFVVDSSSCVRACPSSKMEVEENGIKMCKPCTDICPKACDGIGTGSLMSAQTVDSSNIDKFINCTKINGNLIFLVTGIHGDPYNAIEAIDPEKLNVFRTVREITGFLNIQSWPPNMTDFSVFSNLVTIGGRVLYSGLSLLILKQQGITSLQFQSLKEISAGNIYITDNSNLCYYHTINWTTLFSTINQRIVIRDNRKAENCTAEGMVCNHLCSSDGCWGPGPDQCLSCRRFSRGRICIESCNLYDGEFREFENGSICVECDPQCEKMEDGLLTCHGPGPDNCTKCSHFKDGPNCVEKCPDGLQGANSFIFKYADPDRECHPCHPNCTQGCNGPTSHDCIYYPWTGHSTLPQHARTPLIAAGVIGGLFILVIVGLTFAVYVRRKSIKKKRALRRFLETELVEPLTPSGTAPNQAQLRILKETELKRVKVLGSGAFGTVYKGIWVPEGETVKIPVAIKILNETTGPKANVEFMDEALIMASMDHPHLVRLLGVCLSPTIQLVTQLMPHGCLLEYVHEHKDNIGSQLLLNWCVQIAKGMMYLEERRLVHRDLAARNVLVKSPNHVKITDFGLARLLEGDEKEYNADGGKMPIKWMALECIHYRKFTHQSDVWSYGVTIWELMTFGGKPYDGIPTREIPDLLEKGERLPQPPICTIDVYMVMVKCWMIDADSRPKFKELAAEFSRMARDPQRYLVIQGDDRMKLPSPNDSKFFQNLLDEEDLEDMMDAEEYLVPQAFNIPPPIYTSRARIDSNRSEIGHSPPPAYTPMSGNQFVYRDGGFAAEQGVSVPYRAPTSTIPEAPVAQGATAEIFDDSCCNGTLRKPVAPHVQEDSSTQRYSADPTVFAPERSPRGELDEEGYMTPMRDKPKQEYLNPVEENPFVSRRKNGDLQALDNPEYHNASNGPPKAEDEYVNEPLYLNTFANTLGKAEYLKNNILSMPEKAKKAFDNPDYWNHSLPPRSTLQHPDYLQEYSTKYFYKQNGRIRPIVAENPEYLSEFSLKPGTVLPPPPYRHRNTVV
Sequence of Voltage-gated inwardly rectifying potassium channel KCNH2 (Q12809 whole entry): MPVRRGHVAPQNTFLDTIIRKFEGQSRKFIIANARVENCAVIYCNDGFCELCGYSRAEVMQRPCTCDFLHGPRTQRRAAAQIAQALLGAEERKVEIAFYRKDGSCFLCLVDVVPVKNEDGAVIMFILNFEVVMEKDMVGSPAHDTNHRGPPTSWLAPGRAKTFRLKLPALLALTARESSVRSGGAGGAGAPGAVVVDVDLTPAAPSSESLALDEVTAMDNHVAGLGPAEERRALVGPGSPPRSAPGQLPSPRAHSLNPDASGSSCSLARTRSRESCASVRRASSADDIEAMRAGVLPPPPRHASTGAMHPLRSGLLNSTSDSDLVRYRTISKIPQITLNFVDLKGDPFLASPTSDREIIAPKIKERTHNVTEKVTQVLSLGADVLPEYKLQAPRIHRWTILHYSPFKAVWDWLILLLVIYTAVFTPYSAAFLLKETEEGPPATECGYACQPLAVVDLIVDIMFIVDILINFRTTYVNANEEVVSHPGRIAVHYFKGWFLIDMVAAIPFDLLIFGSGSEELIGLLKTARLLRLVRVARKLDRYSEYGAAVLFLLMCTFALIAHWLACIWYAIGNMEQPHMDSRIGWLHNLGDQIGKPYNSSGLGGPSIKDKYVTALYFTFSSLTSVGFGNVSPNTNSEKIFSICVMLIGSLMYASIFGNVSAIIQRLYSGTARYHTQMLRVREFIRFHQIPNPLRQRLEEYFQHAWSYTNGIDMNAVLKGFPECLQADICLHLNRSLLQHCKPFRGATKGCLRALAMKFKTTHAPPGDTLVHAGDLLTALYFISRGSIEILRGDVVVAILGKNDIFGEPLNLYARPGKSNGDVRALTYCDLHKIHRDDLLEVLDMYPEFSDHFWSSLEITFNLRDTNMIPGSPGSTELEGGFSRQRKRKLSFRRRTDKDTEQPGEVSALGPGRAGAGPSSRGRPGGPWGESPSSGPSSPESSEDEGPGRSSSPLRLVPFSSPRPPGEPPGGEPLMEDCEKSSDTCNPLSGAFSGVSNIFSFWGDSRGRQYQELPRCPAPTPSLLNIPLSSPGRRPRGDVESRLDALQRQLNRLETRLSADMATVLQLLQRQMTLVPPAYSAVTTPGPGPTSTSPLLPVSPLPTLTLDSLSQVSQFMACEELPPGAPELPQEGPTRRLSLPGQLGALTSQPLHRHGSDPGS

Kd [1]: 890 nM
clearance [2]: 126 mL/min/kg
IC50 [3]: 30 nM
CLint scaled [4]: 66 mL/min/kg
fraction unbound [5]: 0.227
Kd [6]: 30000 nM
Kd [7]: 2900 nM
Kd [8]: 6500 nM
solubility kinetic [10]: 73 µg/mL (≈ 152 µM)
Vd [11]: 126 L/kg
Compound: C=CC(=O)N(C)CCOc1c(N)ncnc1-c1ccc(CN2CCN(CC(C)C)CC2=O)c(C)c1
IC50 [9]: > 60000 nM
